Values of other authors in patent US20250334554A1, “ANALYTICAL METHOD FOR QUANTIFYING SUCRALOSE-6-ACETATE CONTENT” (Avazyme, Inc., priority 2024, published 2025).
Peptide text beside a SMILES is read from it.

What was measured:
humans = conditions: 2023, Riboli et al.
[1] = Schiffman et al. 2023

COC(=O)[C@H](Cc1ccccc1)NC(=O)[C@@H](N)CC(=O)O [aspartame] (H-Asp-Phe-OMe)
IARC carcinogenicity classification (humans): possibly carcinogenic to humans (Group 2B)

CC(=O)OC[C@H]1O[C@H](O[C@]2(CCl)O[C@H](CCl)[C@@H](O)[C@@H]2O)[C@H](O)[C@@H](O)[C@H]1Cl [sucralose-6-acetate]
consumption level at which may be genotoxic [1]: 0.15 µg/day
